Test results taken from PMC7394242 (Journal of molecular biology, 2020).

Legend:
sRI-sT complex = sRI-sT complex (Enterobacteria phage T4, UniProt P06808+P13304); test: biochemical; assay type: binding
crystal structure = target: the molecule itself; test: crystal structure

sRI-sT complex, sequence (P06808 56-218, one chain of several): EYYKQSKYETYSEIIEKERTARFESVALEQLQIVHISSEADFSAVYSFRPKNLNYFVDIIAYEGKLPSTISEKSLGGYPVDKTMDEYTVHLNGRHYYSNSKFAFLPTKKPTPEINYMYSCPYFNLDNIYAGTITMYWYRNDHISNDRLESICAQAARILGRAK

Molecule	Kd (sRI-sT complex) [µM]	stoichiometry N (crystal structure)
Nc1nc2c(ncn2[C@@H]2O[C@H](CO)[C@@H](O)[C@H]2O)c(=O)[nH]1 [guanosine]	43	–
periplasmic/soluble domain of the antiholin RI (sRI), residues 25-97, with C-terminal histidine tag (domain or fragment, T4 phage, UniProt P13304 25-97, looked up, disulfide bond between Cys69 and Cys75) NVDPHFDKFMESGIRHVYMLFENKSVESSEQFYSFMRTTYKNDPCSSDFECIERGAEMAQSYARIMNIKLETE	–	4
